Measured values: ChEMBL document CHEMBL1201862, “PubChem BioAssay data set” (2004)
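Growth conditions: 96-well plates. Treatment: test compound, 48 hours, 5 concentrations. Analysis: linear interpolation between bracketing concentrations; unreached endpoints set to highest concentration. GI50 = concentration required for 50% inhibition of growth.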 Activity calls are given as the source filed them. Rule as the data show it: active = GI50 up to about 1.1 µM and inactive = higher.

What was measured:
Assay in all cases: inhibition of tumour cell growth, NCI panel, 48 h
[1] = tested on: ACHN
[2] = tested on: SN12C
[3] = tested on: MDA-MB-231
[4] = tested on: MDA-N
[5] = tested on: T47D
[6] = tested on: HT-29
[7] = tested on: SK-MEL-28
[8] = tested on: SK-MEL-2
[9] = tested on: OVCAR-8
[10] = tested on: SK-MEL-5
[11] = tested on: NCI-H460
[12] = tested on: A498
[13] = tested on: OVCAR-4
[14] = tested on: 786-0
[15] = tested on: SNB-19
[16] = tested on: M14
[17] = tested on: OVCAR-5
[18] = tested on: OVCAR-3
[19] = tested on: SK-OV-3
[20] = tested on: TK-10
[21] = tested on: HCT-15
[22] = tested on: RXF 393
[23] = tested on: HCT-116
[24] = tested on: A549
[25] = tested on: U-251
[26] = tested on: UACC-257
[27] = tested on: MDA-MB-435
[28] = tested on: SF-268
[29] = tested on: SF-295
[30] = tested on: MOLT-4
[31] = tested on: Malme-3M
[32] = tested on: K562
[33] = tested on: LOX IMVI
[34] = tested on: BT-549
[35] = tested on: IGROV-1
[36] = tested on: NCI-H226
[37] = tested on: HOP-62
[38] = tested on: NCI/ADR-RES
[39] = tested on: NCI-H23
[40] = tested on: SNB-75
[41] = tested on: CCRF-CEM
[42] = tested on: UO-31
[43] = tested on: HCC 2998
[44] = tested on: COLO 205
[45] = tested on: PC-3
[46] = tested on: DU-145
[47] = tested on: KM12
[48] = tested on: NCI-H522
[49] = tested on: MCF7
[50] = tested on: UACC-62
[51] = tested on: Hs-578T
[52] = tested on: SW-620

Compound: CC1=C(\C=C/C(C)=C/C=C/C(C)=C/C=C/C=C(C)\C=C\C=C(C)/C=C/C2=C(C)CCCC2(C)C)C(C)(C)CCC1
- GI50 [1]: > 100 µM (inactive)
- GI50 [2]: > 100 µM (inactive)
- GI50 [3]: > 100 µM (inactive)
- GI50 [4]: 40 µM (inactive)
- GI50 [5]: 19.5 µM (inactive)
- GI50 [6]: 56.4 µM (inactive)
- GI50 [7]: 46.5 µM (inactive)
- GI50 [8]: > 100 µM (inactive)
- GI50 [9]: > 100 µM (inactive)
- GI50 [10]: > 100 µM (inactive)
- GI50 [11]: > 100 µM (inactive)
- GI50 [12]: > 100 µM (inactive)
- GI50 [13]: > 100 µM (inactive)
- GI50 [14]: > 100 µM (inactive)
- GI50 [15]: > 100 µM (inactive)
- GI50 [16]: > 100 µM (inactive)
- GI50 [17]: > 100 µM (inactive)
- GI50 [18]: > 100 µM (inactive)
- GI50 [19]: > 100 µM (inactive)
- GI50 [20]: > 100 µM (inactive)
- GI50 [21]: > 100 µM
- GI50 [22]: 33 µM (inactive)
- GI50 [23]: 22.1 µM (inactive)
- GI50 [24]: > 10 µM (inactive)
- GI50 [25]: 56.2 µM (inactive)
- GI50 [26]: > 100 µM (inactive)
- GI50 [27]: 68.9 µM (inactive)
- GI50 [28]: > 100 µM (inactive)
- GI50 [29]: > 100 µM (inactive)
- GI50 [30]: > 100 µM (inactive)
- GI50 [31]: > 100 µM (inactive)
- GI50 [32]: > 100 µM (inactive)
- GI50 [33]: > 100 µM (inactive)
- GI50 [34]: 64.4 µM (inactive)
- GI50 [35]: > 100 µM (inactive)
- GI50 [36]: > 100 µM (inactive)
- GI50 [37]: > 100 µM (inactive)
- GI50 [38]: > 100 µM (inactive)
- GI50 [39]: 34.2 µM (inactive)
- GI50 [40]: > 100 µM (inactive)
- GI50 [41]: > 100 µM (inactive)
- GI50 [42]: > 100 µM (inactive)
- GI50 [43]: > 100 µM (inactive)
- GI50 [44]: 52.6 µM (inactive)
- GI50 [45]: > 100 µM (inactive)
- GI50 [46]: > 100 µM (inactive)
- GI50 [47]: 39.6 µM (inactive)
- GI50 [48]: 35.4 µM (inactive)
- GI50 [49]: 75.2 µM (inactive)
- GI50 [50]: > 100 µM (inactive)
- GI50 [51]: 88.9 µM (inactive)
- GI50 [52]: > 100 µM (inactive)
